Results as given in patent US20180282271A1, “ANTIBIOTIC AMINO ACID MIMETICS” (priority 2017, published 2018).
≈ marks a conversion by molar mass, not a printed value. Where “and” joins values, the source holds several entries; their conditions need not be identical. Equal entries are not always repeated. Structures can show the parent of a compound that is named as a salt. Where a SMILES comes first, the peptide text is derived from it. [ ]: non-standard residue; d: D form. The star is where a group is joined. ξ: configuration not given here. ξF = NC(Cc1ccccc1)C(=O)O; ξhCys = NC(CCS)C(=O)O; ξhSer = NC(CCO)C(=O)O; ξC = NC(CS)C(=O)O; tBu = CC(C)(C)*; NHOH = ON*

Legend:
P. aer. = assay: MIC, conventional methods; format: cell-based, Pseudomonas aeruginosa
Experimental: (§1) The following L,L-dipeptides were tested for their minimum inhibitory concentrations against three different bacterial strains as set forth in the table below. The testing protocol followed conventional methods and identified a MIC value reported as micrograms per milliliter (μg/mL). Each of the dipeptides had the following structure: Based on the above results, the sidechain of the methionine mimetic was modified to evaluate the effect of such substitution on MIC values. Again, this test used conventional assays to measure the MIC values of each of these modified mimetics.

E. coli = assay: MIC, conventional methods; format: cell-based, Escherichia coli
Experimental: as §1

S. aureus = assay: MIC, conventional methods; format: cell-based, Staphylococcus aureus
Experimental: as §1

E. coli (ATTC 8739) = assay: Zone of inhibition test; format: cell-based; details: for concentration at which a zone of inhibition was shown: E. coli grown in a Petri dish, FIG. 1A/1B; for strength of the zone of inhibition, in words: cpd. A at 50 μg, Ex. 3 at 12.5 μg
Experimental: Compound A was tested against L-phenylalanine-(S)-2-amino-N-hydroxy-4-(methylthio)butanamide hydrochloride (Example 3) in a side-by-side comparison in a conventional zone of inhibition test. In this test, both compounds were compared at various concentrations against E. coli (ATTC 8739) grown in a Petri dish using the antibiotic kanamycin as a control.

[1] = test system: Enterococcus faecalis MMX 101/ATCC 29212; assay: Broth microdilution MIC, standard CLSI media, ATCC QC organism; format: cell-based
Experimental: (§2) The test organisms were originally received from clinical sources or from the American Type Culture Collection (ATCC, Manassas, Va.). When received, the organisms were subcultured onto an appropriate agar medium. Following incubation, colonies were harvested from the plate and a cell suspension was prepared in broth containing cryoprotectant and frozen at −80° C. Prior to the assay, a frozen vial of the culture was partially thawed and the contents were streaked for isolation onto an appropriate growth medium. The agar plates were incubated overnight at 35° C. Test organisms included staphylococci and enterococci (Table 1), streptococci (Table 2), Enterobacteriaceae (Table 3), lactose non-fermenting Gram-negative bacilli (Table 4), Haemophilus influenzae (Table 5), Neisseria gonorrhoeae (Table 5), and Clostridium difficile (Table 6).
(§3) The standard CLSI broth medium was employed for the purposes of quality control of the comparator drugs for the MIC assay and was only used for testing of relevant ATCC quality control isolates as established by CLSI (1-5).
(§4) MIC values were determined using a broth microdilution method as recommended by CLSI (1-5).
(§5) Column 1 was filled with 300 μL of the investigational and control agents at the appropriate stock concentration (40× of the highest test concentration). The Biomek 2000 was used to make eleven 2-fold serial dilutions to create a “mother plate.” The wells of column 12 contained no drug and served as growth control wells.
(§6) The daughter plates were prepared on the Biomek FX instrument which transferred 5 μL of drug solution from each well of the mother plate to the corresponding well of each daughter plate in a single step.
(§7) Standardized inoculum of each organism was prepared per CLSI methods (1-5). The inoculum for each organism was dispensed into sterile reservoirs divided by length (Beckman Coulter), and the Biomek 2000 was used to inoculate the plates. Daughter plates were placed on the Biomek 2000 work surface reversed so that inoculation took place from low to high drug concentration. The Biomek 2000 delivered 10 PL of standardized inoculum into each well resulting in a target inoculum size of approximately 5×10^5 CFU/mL. The wells of the daughter plates ultimately contained 185 μL of media, 5 μL of drug solution at 40× the test concentration, and 10 μL of bacterial inoculum prepared in media.
(§8) Plates were stacked 3-4 high, covered with a lid on the top plate, placed into plastic bags, and incubated at 35° C. under the appropriate conditions, with C. difficile incubated anaerobically. Plates were viewed post-incubation at 18-24 hr and again at 48 hr from the bottom using a plate viewer. […] MICs were read where visible growth of the organism was inhibited.

[2] = test system: Neisseria gonorrhoeae MMX 683/ATCC 49226; assay: as above; format: cell-based
Experimental: as §2, §3, §4, §5, §6, §7, §8

[3] = test system: Pseudomonas aeruginosa MMX 103/ATCC 27853; assay: as above; format: cell-based
Experimental: as §2, §3, §4, §5, §6, §7, §8

[4] = test system: Clostridium difficile MMX 4381/ATCC 700057; assay: as above; format: cell-based; details: Clostridioides difficile, ATCC700057, 48 hr results
Experimental: as §2, §3, §4, §5, §6, §7, §8

[5] = test system: Escherichia coli MMX 102/ATCC 25922; assay: as above; format: cell-based
Experimental: as §2, §3, §4, §5, §6, §7, §8

[6] = test system: Escherichia coli UNT116-1 (ATCC25922); assay: Murine superficial skin infection model; format: in vivo, mice; details: for Mean log10 CFU/wound: 50 uL topical +4, 8, 12, 16 & 20 hr, sampled +24 hr
Experimental: Evaluation of high dose of novel test article(s) for the treatment of a superficial skin infection in mice caused by Escherichia coli. […] Strain has been previously used separately for this infection at […]. Female 5-6 week old CD-1 (18-22 gm) were used in the studies. The mice were housed in groups of 5 with free access to food and water during the study. Cytoxan 150 mg/kg@15 mg/mL on Day-4 ONLY. The mice were anesthetized and kept sedated during the initial procedure under isoflurane vapors (3%). The fur on the back dorsal surface was shaved using electric clippers followed by 'wet shaving' with a disposable razor. The skin was then sterilized with a betadine wash followed by alcohol swab. An area of the shaved skin was then abraded utilizing a sterile gauze pad. Following this procedure, the skin became visibly damaged and characterized by reddening and glistening but no bleeding. […] The skin was then wiped with an alcohol swab and allowed to dry completely. After stripping of the skin, a bacterial infection was initiated by placing on the skin a 5-10 μL droplet containing approximately […] of both bacterium concentrated from overnight cultures in stationary phase. [table] Sponsors test articles were prepared in 0.05% methylcellulose. Fresh formulations were prepared for each day of dosing. The first application of each compound (N=10 mice/group) to the stripped skin of the mice was at 4 hr post-infection then continued q4 hr. For each treatment 50 uL of formulation was applied. Infection control groups' untreated mice were included with each experiment. The test was terminated 4 h after the last topical treatment. Immediately after the mice were euthanized (photographs of the wounds were taken for each group), the wounds, approximately 2 cm2, were excised, rinsed in sterile PBS and homogenized together with 2 ml of phosphate-buffered saline in a Polytron tissue homogenizer. The homogenates were washed once in phosphate-buffered saline to decrease the concentration of ointment. Suitable dilutions of the homogenates were plated on appropriate agar (with the addition of charcoal to avoid the effects of antibiotic carryover) for the organism to determine the number of living bacteria (CFU).

[7] = Table 1, L,L-dipeptides varied in T
[8] = Table 2, side chain Q of the methionine mimetic varied
[9] = Study #2, test articles 700 mg/mL, gentamicin 0.30%
[10] = Study #2, test articles 700 mg/mL, gentamicin 0.30%, topical, +24 hr

| Compound | MIC P. aer. (P. aer.; [7]) [µg/mL] | MIC E. coli (E. coli; [7]) [µg/mL] | MIC S. aur. (S. aureus; [7]) [µg/mL] | MIC P. aer. (P. aer.; [8]) [µg/mL] | MIC E. coli (E. coli; [8]) [µg/mL] | MIC S. aur. (S. aureus; [8]) [µg/mL] | other results |
| --- | --- | --- | --- | --- | --- | --- | --- |
| CSCC[C@H](NC(=O)[C@H](C)N)C(=O)NO [B] (H-Ala-Met-{NHOH}) | 1040 (≈ 4420 µM) | 158 (≈ 671 µM) | 131 (≈ 557 µM) | – | – | – | – |
| CSCC[C@H](NC(=O)[C@@H](N)C(C)C)C(=O)NO [C] (H-Val-Met-{NHOH}) | 833 (≈ 3160 µM) | 520 (≈ 1970 µM) | 416 (≈ 1580 µM) | – | – | – | – |
| CSCC[C@H](NC(=O)CN)C(=O)NO [Compound A] | 647 (≈ 2920 µM) | 138 (≈ 624 µM) | 84 (≈ 380 µM) | 647 (≈ 2920 µM) | 138 (≈ 624 µM) | 84 (≈ 380 µM) | concentration at which a zone of inhibition was shown (E. coli (ATTC 8739)): 50 µg; strength of the zone of inhibition, in words (E. coli (ATTC 8739)): quite weak |
| CSCC[C@H](NC(=O)[C@@H](N)CCCCN)C(=O)NO [Compound E] | >1660 | 312 (≈ 1070 µM) | 104 (≈ 356 µM) | – | – | – | – |
| CSCC[C@H](NC(=O)[C@@H](N)CCC(=O)O)C(=O)NO [Compound F] (H-Glu-Met-{NHOH}) | 1660 (≈ 5660 µM) | 554 (≈ 1890 µM) | 312 (≈ 1060 µM) | – | – | – | – |
| CSCC[C@H](NC(=O)[C@@H]1CCCN1)C(=O)NO [D] (H-Pro-Met-{NHOH}) | 270 (≈ 1030 µM) | 312 (≈ 1190 µM) | 125 (≈ 478 µM) | – | – | – | – |
| CSCC[C@H](NC(=O)C(N)Cc1ccccc1)C(=O)NO (stereo partly drawn) [Example 3, L-phenylalanine-(S)-2-amino-N-hydroxy-4-(methylthio)butanamide hydrochloride] (H-[ξF]-Met-{NHOH}) | – | – | – | – | – | – | concentration at which a zone of inhibition was shown (E. coli (ATTC 8739)): 12.5 µg; strength of the zone of inhibition, in words (E. coli (ATTC 8739)): substantially stronger than the zone of inhibition for cpd. A at 50 μg |
| C[S+]([O-])CCC(NC(=O)CN)C(=O)NO (stereo not shown) [G] | – | – | – | 416 (≈ 1750 µM) | 123 (≈ 518 µM) | 51 (≈ 215 µM) | – |
| CS(=O)(=O)CCC(NC(=O)CN)C(=O)NO (stereo not shown) [H] | – | – | – | 416 (≈ 1640 µM) | 208 (≈ 821 µM) | 104 (≈ 411 µM) | – |
| CCCCC(NC(=O)CN)C(=O)NO (stereo not shown) [I] | – | – | – | 520 (≈ 2560 µM) | 69 (≈ 339 µM) | 51 (≈ 251 µM) | – |
| CCSCCC(NC(=O)CN)C(=O)NO (stereo not shown) [J] (H-Gly-[ξhCys](Et)-{NHOH}) | – | – | – | 554 (≈ 2350 µM) | 129 (≈ 548 µM) | 60 (≈ 255 µM) | – |
| CCCCSCCC(NC(=O)CN)C(=O)NO (stereo not shown) [K] | – | – | – | 138 (≈ 524 µM) | 150 (≈ 570 µM) | 60 (≈ 228 µM) | – |
| CC(C)(C)SCCC(NC(=O)CN)C(=O)NO (stereo not shown) [L] (H-Gly-[ξhCys](tBu)-{NHOH}) | – | – | – | 624 (≈ 2370 µM) | 207 (≈ 786 µM) | 77 (≈ 292 µM) | – |
| C/C(=C\C(=O)OCCCCCCCCC(=O)O)C[C@@H]1OC[C@H](C[C@@H]2O[C@H]2[C@@H](C)[C@H](C)O)[C@@H](O)[C@H]1O [MUP, mupirocin] | – | – | – | – | – | – | MIC ([1]; ATCC29212, 24 hr results): 256 µg/mL (≈ 511 µM); MIC ([1]; ATCC29212, 48 hr results): > 256 µg/mL; MIC ([2]; ATCC49226, 24 hr results): > 256 µg/mL; MIC ([2]; ATCC49226, 48 hr results): > 256 µg/mL; MIC ([3]; ATCC27853, 24 hr results): > 256 µg/mL; MIC ([3]; ATCC27853, 48 hr results): > 256 µg/mL; MIC [4]: > 256 µg/mL; MIC ([5]; ATCC25922, 24 hr results): > 256 µg/mL; MIC ([5]; ATCC25922, 48 hr results): > 256 µg/mL |
| CCSCC(NC(=O)CN)C(=O)NO (stereo not shown) [M] (H-Gly-[ξC](Et)-{NHOH}) | – | – | – | 832 (≈ 3760 µM) | 159 (≈ 719 µM) | 104 (≈ 470 µM) | – |
| CC(C)(C)SCC(NC(=O)CN)C(=O)NO (stereo not shown) [N] (H-Gly-[ξC](tBu)-{NHOH}) | – | – | – | 693 (≈ 2780 µM) | 195 (≈ 782 µM) | 77 (≈ 309 µM) | – |
| COCCC(NC(=O)CN)C(=O)NO (stereo not shown) [O] (H-Gly-[ξhSer](Me)-{NHOH}) | – | – | – | 624 (≈ 3040 µM) | 374 (≈ 1820 µM) | 112 (≈ 546 µM) | – |
| Gentamicin | – | – | – | – | – | – | Mean log10 CFU/wound ([6]; Study #1, test articles 500 mg/mL, gentamicin 0.30%, wounds wrongly sprayed with 70% EtOH for test articles): 2.35 log10 CFU/wound; Mean log10 Change vs. +24 hr ([6]; Study #1, test articles 500 mg/mL, gentamicin 0.30%, topical, +24 hr): −5.37 log10; reduction of bacterial skin burden compared to the 24 hour untreated control [6, 9]: 5.98 log10 CFU/wound; Mean log10 CFU/wound [6, 9]: 2.46 log10 CFU/wound; Log 10 CFU/wound, individual animal [6, 10]: 2.83 Log 10 CFU/wound and 2.35 Log 10 CFU/wound (8×) and 2.95 Log 10 CFU/wound; Mean log10 Change vs. +4 hr [6, 10]: −1.36 log10; Mean log10 Change vs. +24 hr [6, 10]: −5.98 log10; 95.00% CI of diff., Tukey's multiple comparisons test ([6]; Study #2, vs. +4 hr Infection Control): −2.209 to −0.5115; 95.00% CI of diff., Tukey's multiple comparisons test ([6]; Study #2, vs. +24 hr Infection control): −6.678 to −5.292 |
